Test results from patent US4269843A, “N-Sec-alkyl analogs of norcodeine and normorphine and analgesic compositions and methods employing the normorphine derivatives” (priority 1980, dated 1981).

What was measured:
mice [1] = assay: animal or person; type: in vivo, mouse; details: for ED50: Mus musculus, mice, dose [micromoles per kg of body weight] which gives a group mean response time of 5 seconds, read-out: Tail Flick (ED50); for analgesic activity (in words): summary statement, mice tail flick and writhing assays
Text: (§1) Using mice, the compounds of this invention were subjected to the Tail Flick Analgesic Assay, the Writhing Analgesic Assay, the Straub Tail Antagonist Assay and the Mouse Jump Physical Dependence Assay, said assays being described in the literature as follows:
Tail Flick Analgesic Assay
D'Amour, F. E and Smith, D. L., J. Pharmacol. Exp. Therap. 72, 74-79 (1941)
Howes, J. F., Harris, L. S., Dewey, W. L. and Voyda, C. A., J. Pharmacol. Exp. Therap. 169, 23-28 (1969)
Dewey, W. L., Harris, L. S., Howes, J. F. and Nuite, J. A., J. Pharmacol. Exp. Therap. 175, 435-442 (1970)
The Tail Flick Analgesic Assay represents a test procedure in which heat from an intense light source is focused on the mouse's tail. When pain is detected by the mouse the tail gives a characteristic flicking response. In untreated controls the intervals from exposure to flick is about 2 seconds, while when using an effective analgesic the interval from exposure to flick is usually about 6 to 10 seconds. The ED50 values given in Table 1 below represent the dose [micromoles (μM) per kg of body weight] which gives a group mean response time of 5 seconds.

mice [2] = assay: animal or person; type: in vivo; details: Mus musculus, ip, phenylquinone i.p., dose which eliminates any writhing in 50% of the treated mice
Text: as §1
Blumberg, H., Wolf, P. S. and Dayton, H. B., Proc. soc. Exper. Biol. Med., 118, 763 (1965).
The ED50 values given in Table 1 below represent the dose (μM/kg) which eliminates any such writhing in 50% of the treated mice.

mice [3] = assay: Straub Tail Antagonist Assay (morphine-injected mice); type: in vivo, mouse; details: for ED50: Mus musculus, dose which abolishes the response in 50% of the test mice, read-out: Inhibition of Straub tail response (ED50); for antagonist properties (in words): summary statement
Text: as §1
Straub Tail Antagonist Assay
Blumberg, H. and Dayton, H. B. In Narcotic antagonists Advances in Biochemical Psychopharmacology, Vol. 8, Ed., Brande, M. C., Harris L. S.

mice [4] = assay: Mouse Jump Physical Dependence Assay; type: in vivo; details: for Total Number Mice Affected (Jumped): i.p., 30 min; for number of mice jumping / withdrawal symptoms (in words): Naloxone 100 mg/kg on day 4, 30 minutes
Text: as §1
Saelens, J. K., Granat, F. R. and Sawyer, W. K. Arch. int. Pharmacodyn 190, 213-218 (1971).
Using mice, tests were made to determine the physical dependence capacity of compounds 7(S) 7(R) and 9 as measured by the Mouse Jump Test, this being a simple screening method to estimate the physical dependence capacity of analgesics. In this mouse jumping test, the mice are injected (i.p.) 5× on day 1 with gradually increasing dosages ranging from 8 to 100 mg/kg of body weight. On days 2 and 3 the mice (in all except one test) were given 100 mg/kg 4×. In the one test, dosage was raised to 200-300 mg/kg on day 2 and to 300 mg/kg on day 3. On day 4 all the mice received one shot (100 mg/kg) of the antogonist Naloxone. Following this all mice were caged for 30 minutes and a record was made of the number of mice jumping during this interval.

[5] = cited from earlier work; for analgesic / agonist activity (in words): literature
[6] = literature; cited from earlier work
[7] = 8-100 mg/kg day 1, 100 mg/kg days 2 and 3, 100 mg/kg Naloxone day 4, mice tested: 7(S) 20, 7(R) 12, 9 10, Morphine 10, Nalline 12

## CC[C@@H](C)N1CC[C@]23c4c5ccc(O)c4O[C@H]2[C@@H](O)C=C[C@H]3[C@H]1C5 [7(R), N-2-butylnormorphine]
Mice [1]
  ED50: 19 µmol/kg
Mice [2]
  ED50: 6.4 µmol/kg
Mice [3]; mice injected with morphine
  ED50: 16.2 µmol/kg
Mice [4]; [7]
  Total Number Mice Affected (Jumped): 1
Mice [4]
  number of mice jumping / withdrawal symptoms (in words): very small

## CC[C@H](C)N1CC[C@]23c4c5ccc(O)c4O[C@H]2[C@@H](O)C=C[C@H]3[C@H]1C5 [7(S), N-2-butylnormorphine]
Mice [1]
  ED50: 13.4 µmol/kg
Mice [2]
  ED50: 11 µmol/kg
Mice [3]; mice injected with morphine
  ED50: 7.4 µmol/kg
Mice [4]; [7]
  Total Number Mice Affected (Jumped): 2
Mice [4]; 8-100 mg/kg day 1, 200-300 mg/kg day 2, 300 mg/kg day 3, 100 mg/kg Naloxone day 4, 10 mice tested
  Total Number Mice Affected (Jumped): 1
Mice [4]
  number of mice jumping / withdrawal symptoms (in words): very small

## C=C[C@@H](C)N1CC[C@]23c4c5ccc(O)c4O[C@H]2[C@@H](O)C=C[C@H]3[C@H]1C5 [8(R), N-α-methylallylnormorphine]
Mice [1]
  ED50: 44.5 µmol/kg
Mice [2]
  ED50: 13 µmol/kg
Mice [3]; mice injected with morphine
  ED50: 11 µmol/kg

## CCC(C)N1CC[C@]23c4c5ccc(O)c4O[C@H]2[C@@H](O)C=C[C@H]3[C@H]1C5 (stereo partly shown) [Compound 7, N-2-butylnormorphine]
Mice [1]
  analgesic activity (in words): analgesic activities similar to morphine
Mice [3]
  antagonist properties (in words): antagonist properties indicative of low addiction potential

## C=CC(C)N1CC[C@]23c4c5ccc(O)c4O[C@H]2[C@@H](O)C=C[C@H]3[C@H]1C5 (stereo partly drawn) [Compound 8, N-α-methylallylnormorphine]
Mice [1]
  analgesic activity (in words): analgesic activities similar to morphine
Mice [3]
  antagonist properties (in words): antagonist properties indicative of low addiction potential

## CC(C1CC1)N1CC[C@]23c4c5ccc(O)c4O[C@H]2[C@@H](O)C=C[C@H]3[C@H]1C5 (stereo partly drawn) [Compound 9, N-α-methylcyclopropylmethylnormorphine]
Mice [1]
  ED50: 12.4 µmol/kg
  analgesic activity (in words): analgesic activities similar to morphine
Mice [2]
  ED50: 0.69 µmol/kg
Mice [3]; mice injected with morphine
  ED50: 4.5 µmol/kg
Mice [3]
  antagonist properties (in words): antagonist properties indicative of low addiction potential
Mice [4]; [7]
  Total Number Mice Affected (Jumped): 1
Mice [4]
  number of mice jumping / withdrawal symptoms (in words): very small

## CCC(CC)N1CC[C@]23c4c5ccc(O)c4O[C@H]2[C@@H](O)C=C[C@H]3[C@H]1C5 [Compound 10, N-3-pentylnormorphine]
Mice [1]
  ED50: 19.9 µmol/kg
  analgesic activity (in words): analgesic activities similar to morphine
Mice [2]
  ED50: 2.3 µmol/kg
Mice [3]; mice injected with morphine
  ED50: 17.2 µmol/kg
Mice [3]
  antagonist properties (in words): antagonist properties indicative of low addiction potential

## CN1CC[C@]23c4c5ccc(O)c4O[C@H]2[C@@H](O)C=C[C@H]3[C@H]1C5 [Morphine]
Mice [3]; mice injected with morphine
  Inhibition of Straub tail response (result in words): No inhibition
Mice [4]; [7]
  Total Number Mice Affected (Jumped): 10
Mice [4]
  number of mice jumping / withdrawal symptoms (in words): all of the mice showed withdrawal symptoms

## CCCCCN1CC[C@]23c4c5ccc(O)c4O[C@H]2[C@@H](O)C=C[C@H]3[C@H]1C5 [N-amyl-, N-amylnormorphine]
[5]
  analgesic / agonist activity (in words): potent analgesic activity
[6]
  antagonist activity (in words): devoid of antagonist properties

## CCCCN1CC[C@]23c4c5ccc(O)c4O[C@H]2[C@@H](O)C=C[C@H]3[C@H]1C5 [N-butyl-, N-butylnormorphine]
[5]
  analgesic / agonist activity (in words): potent analgesic activity
[6]
  antagonist activity (in words): devoid of antagonist properties

## CCCCCCN1CC[C@]23c4c5ccc(O)c4O[C@H]2[C@@H](O)C=C[C@H]3[C@H]1C5 [N-hexylnormorphine]
[5]
  analgesic / agonist activity (in words): potent analgesic activity
[6]
  antagonist activity (in words): devoid of antagonist properties

## CC(C)CN1CC[C@]23c4c5ccc(O)c4O[C@H]2[C@@H](O)C=C[C@H]3[C@H]1C5 [N-isobutylnormorphine]
[6]
  antagonist activity (in words): morphine antagonists only

## COc1ccc2c3c1O[C@H]1[C@@H](O)C=C[C@H]4[C@@H](C2)N(C(C)C)CC[C@@]341 [N-isopropyl-norcodeine]
[5]
  analgesic / agonist activity (in words): inactive

## CC(C)N1CC[C@]23c4c5ccc(O)c4O[C@H]2[C@@H](O)C=C[C@H]3[C@H]1C5 [N-isopropyl-normorphine]
[5]
  analgesic / agonist activity (in words): not a good agonist
[6]
  antagonist activity (in words): little, if any, antagonist qualities

## CCCN1CC[C@]23c4c5ccc(O)c4O[C@H]2[C@@H](O)C=C[C@H]3[C@H]1C5 [N-propyl normorphine]
[6]
  antagonist activity (in words): morphine antagonists only

## C=CCN1CC[C@]23c4c5ccc(O)c4O[C@H]2[C@@H](O)C=C[C@H]3[C@H]1C5 [Nalorphine, N-allylnormorphine, reference compound]
Mice [3]; mice injected with morphine
  ED50: 1 µmol/kg
Mice [4]; [7]
  Total Number Mice Affected (Jumped): 0-3
Mice [4]
  number of mice jumping / withdrawal symptoms (in words): very small

## CC(C)=CCN1CCC2(C)c3cc(O)ccc3CC1C2C (stereo not shown) [pentazocine]
[5]; fraction of the potency of morphine
  analgesic potency relative to morphine: about one-fourth
[6]
  antagonist activity (in words): dual agonist-antagonist
